Experiment: Lipid content and purity by reverse phase HPLC (Example 3 Study 3)
Assay type: physicochemical
Conditions: in 20 mM citrate 1:57 SNALP formulation
Protocol: Samples were removed after 2 weeks of storage at room temperature (RT) or 40° C. (accelerated conditions). Samples were analyzed for particle size, encapsulation efficiency, lipid content and purity, and siRNA content and purity. Particle size measurements were obtained using a Malvern Zetasizer instrument and encapsulation efficiency was determined using a RiboGreen fluorometric assay. Lipid content and purity were analyzed by reverse phase HPLC. siRNA content and purity were analyzed by denaturing anion-exchange HPLC (DENAX).
Reverse phase HPLC analysis was performed to assess the level of lipid degradation. The results are shown Tables 23-25. […] The formulations containing EDTA or EDTA combined with additional antioxidants had no significant change in lipid content at either storage temperature. The same trends in lipid stability were observed regardless of which cationic lipid was present in the formulation.

cationic lipid content before the drop: about 58 mol % | cationic lipid content after storage (2 weeks at 40° C.): about 52 mol %
Structure (SMILES): CCCCC/C=C\C/C=C\CCCCCCCCC(CCCCCCCC/C=C\C/C=C\CCCCC)OCCCCN(C)C [MC4 Ether, 4-((6Z,9Z,28Z,31Z)-heptatriaconta-6,9,28,31-tetraen-19-yloxy)-N,N-dimethylbutan-1-amine]

From patent US20130022649A1, “SNALP FORMULATIONS CONTAINING ANTIOXIDANTS” (Protiva Biotherapeutics, Inc., priority 2009, published 2013)
